Data from the NIST ThermoML archive (doi:10.1021/je4004405).
± gives the expanded uncertainty stated by the source.

How the values were obtained:
[1] = 298.15 K, 101.33 kPa, Liquid
[2] = wn = mass fraction of the nth substance listed; details: 101 kPa, Liquid; for viscosity: Capillary tube (Ostwald / Ubbelohde) method; for mass density: Pycnometric method

CCCCOCCO [2-butoxyethan-1-ol]
[1]
Details	mass density [kg/m3]	viscosity [mPa·s]
Capillary tube (Ostwald / Ubbelohde) method	–	2.782 ± 0.022
Pycnometric method	896.16 ± 0.55	–

CCCCOCCO [2-butoxyethan-1-ol] + O
[2]
Details	mass density, 298.15 K [kg/m3]	mass density, 303.15 K [kg/m3]	mass density, 308.15 K [kg/m3]	mass density, 313.15 K [kg/m3]	viscosity, 298.15 K [mPa·s]	viscosity, 303.15 K [mPa·s]	viscosity, 308.15 K [mPa·s]	viscosity, 313.15 K [mPa·s]
w1 = 0.2	986.46 ± 0.55	982.92 ± 0.56	980.38 ± 0.56	977.64 ± 0.56	1.849 ± 0.018	1.622 ± 0.017	1.465 ± 0.017	1.302 ± 0.017
w1 = 0.4	967.1 ± 0.55	964.31 ± 0.56	961.45 ± 0.56	958.48 ± 0.56	2.998 ± 0.022	2.635 ± 0.021	2.334 ± 0.02	2.054 ± 0.019
w1 = 0.6	948.1 ± 0.55	944.74 ± 0.56	941.59 ± 0.56	937.57 ± 0.56	3.918 ± 0.026	3.394 ± 0.024	2.921 ± 0.022	2.539 ± 0.021
w1 = 1	896.16 ± 0.55	892.74 ± 0.55	888.88 ± 0.56	884.29 ± 0.56	2.782 ± 0.022	2.499 ± 0.021	2.206 ± 0.02	1.946 ± 0.019
